Source: patent US20070203216A1, “METHOD OF TREATING INFLAMMATORY DISEASES” (priority 2006, published 2007)
“Also recorded” adds a separate entry of the source.

Experiments:
[1] = system: chronic mild stress rats; experiment: Chronic mild stress model in rats, serum marker analysis; settings: CMS rats; for reversal of stress-induced alterations in serum markers: versus non-stressed controls;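 for all read-outs here: terminal serum drawn from the tail of rats 24 h after the final drug dose, profiled within a panel of roughly 60 blood markers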
Method: At the end of the present study, terminal serum samples were collected for marker analysis to evaluate the effects of stress with and without drug on the levels of about 60 blood markers.
Serum samples were withdrawn from the tail, without stunning, during the daytime (09:00-17:00) 24 hrs after the last drug injection. Blood was collected into BD vacutainers containing clot activator and gel for serum preparation, inverted 5 times and maintained on ice until centrifugation at 3000 rpm for 10 min at 4° C. Serum was decanted, placed on ice, and at the end of the day stored at −80° C.

[2] = system: formalin pain model; settings: U.S. Patent Application Publication No. 2005/0288371; cited from earlier work
[3] = 1st study, 5 mg/kg, serum, median
[4] = 2nd study, 10 mg/kg, serum, median

With CN(C)CCC[C@@]1(c2ccc(F)cc2)OCc2cc(C#N)ccc21 [ESC, Escitalopram, reference compound] the “Apo A1 (Apolipoprotein A1)” value [1, 3] was 8.40 µg/mL, the “CRP (C Reactive Protein)” value [1, 3] was 1060.00 µg/mL and the Eotaxin [1, 3] was 1300.00 pg/mL. For the same compound, the “FGF-9 (Fibroblast Growth Factor-9)” value [1, 3] was 0.90 ng/mL, the “GCP-2 (Granulocyte Chemotactic Protein-2)” value [1, 3] was 0.21 ng/mL and the “Growth Hormone” value [1, 3] was 1.38 ng/mL. For the same compound, the “IL-1alpha (Interleukin-1alpha)” value [1, 3] was 15.40 pg/mL, the “IL-2 (Interleukin-2)” value [1, 3] was 38.80 pg/mL and the “IL-4 (Interleukin-4)” value [1, 3] was 51.70 pg/mL. For the same compound, the “IL-7 (Interleukin-7)” value [1, 3] was 0.22 ng/mL, the “IL-10 (Interleukin-10)” value [1, 3] was 317.00 pg/mL and the “IL-11 (Interleukin-11)” value [1, 3] was 166.00 pg/mL. For the same compound, the “IP-10 (Inducible Protein-10)” value [1, 3] was 194.00 pg/mL, the “IgA (Immunoglobulin A)” value [1, 3] was 6.54 µg/mL and the Insulin [1, 3] was 11.30 ulU/mL. For the same compound, the “LIF (Leukemia Inhibitory Factor)” value [1, 3] was 67.20 pg/mL, the Leptin [1, 3] was 2.62 ng/mL and the Lymphotactin [1, 3] was 68.00 pg/mL. For the same compound, the “M-CSF (Macrophage-Colony Stimulating Factor)” value (“M-CSF” below) [1, 3] was 941.00 ng/mL, the “MCP-1 (Monocyte Chemoattractant Protein-1)” value [1, 3] was 1500.00 pg/mL and the “MCP-3 (Monocyte Chemoattractant Protein-3)” value [1, 3] was 885.00 pg/mL. The “MCP-5 (Monocyte Chemoattractant Protein-5)” value [1, 3] was 0.87 pg/mL, the “MIP-1alpha (Macrophage Inflammatory Protein-1alpha)” value (shortened to “MIP-1alpha”) [1, 3] was 244.00 ng/mL and the “MIP-1gamma (Macrophage Inflammatory Protein-1gamma)” value (from here on “MIP-1gamma”) [1, 3] was 11.50 ng/mL. For the same compound, the “MIP-2 (Macrophage Inflammatory Protein-2)” value [1, 3] was 0.09 pg/mL, the “MPO (Myeloperoxidase)” value [1, 3] was 54.60 ng/mL and the “NGAL (Lipocalin-2)” value [1, 3] was 0.22 ng/mL. The Osteopontin [1, 3] was 310.00 ng/mL, the “SAP (Serum Amyloid P)” value [1, 3] was 178.00 µg/mL and the “SCF (Stem Cell Factor)” value [1, 3] was 16.95 pg/mL. For the same compound, the “SGOT (Serum Glutamic-Oxaloacetic Transaminase)” value (“SGOT” for short) [1, 3] was 0.31 µg/mL, the “TIMP-1 (Tissue Inhibitor of Metalloproteinase Type-1)” value [1, 3] was 0.22 ng/mL and the “TPO (Thrombopoietin)” value [1, 3] was 142.00 ng/mL. For the same compound, the “Tissue Factor” value [1, 3] was 0.15 ng/mL, the “VCAM-1 (Vascular Cell Adhesion Molecule-1)” value [1, 3] was 409.00 ng/mL and the “VEGF (Vascular Endothelial Cell Growth Factor)” value (“VEGF” for short) [1, 3] was 106.00 pg/mL. The “reversal of stress-induced alterations in serum markers” value [1] was “inactive at most of these changes”.

In the case of Oc1noc2c1CCNC2 [GBX, 4,5,6,7-tetrahydroisoxazolo [5,4-c] pyridine-3-ol], the “Apo A1 (Apolipoprotein A1)” value [1, 3] is reported as 8.20 µg/mL, the “CRP (C Reactive Protein)” value [1, 3] is reported as 1140.00 µg/mL and the Cystatin-C [1, 3] is reported as 1165.00 ng/mL. The “FGF-9 (Fibroblast Growth Factor-9)” value [1, 3] was 0.59 ng/mL, the “GCP-2 (Granulocyte Chemotactic Protein-2)” value [1, 3] was 0.19 ng/mL and the “Growth Hormone” value [1, 3] was 7.67 ng/mL. The “IL-1alpha (Interleukin-1alpha)” value [1, 3] was 11.30 pg/mL, the “IL-2 (Interleukin-2)” value [1, 3] was 31.30 pg/mL and the “IL-4 (Interleukin-4)” value [1, 3] was 29.60 pg/mL. For the same compound, the “IL-7 (Interleukin-7)” value [1, 3] was 0.16 ng/mL, the “IL-10 (Interleukin-10)” value [1, 3] was 249.00 pg/mL and the “IL-11 (Interleukin-11)” value [1, 3] was 128.00 pg/mL. The “IL-18 (Interleukin-18)” value [1, 3] was 0.07 ng/mL, the “IP-10 (Inducible Protein-10)” value [1, 3] was 138.00 pg/mL and the “IgA (Immunoglobulin A)” value [1, 3] was 5.91 µg/mL. For the same compound, the Insulin [1, 3] was 8.88 ulU/mL, the “LIF (Leukemia Inhibitory Factor)” value [1, 3] was 53.90 pg/mL and the Leptin [1, 3] was 2.59 ng/mL. For the same compound, the Lymphotactin [1, 3] was 53.80 pg/mL, the “M-CSF” value [1, 3] was 865.00 ng/mL and the “MCP-1 (Monocyte Chemoattractant Protein-1)” value [1, 3] was 1185.00 pg/mL. For the same compound, the “MCP-3 (Monocyte Chemoattractant Protein-3)” value [1, 3] was 655.00 pg/mL, the “MCP-5 (Monocyte Chemoattractant Protein-5)” value [1, 3] was 0.77 pg/mL and the “MIP-1alpha” value [1, 3] was 173.00 ng/mL. For the same compound, the “MIP-1gamma” value [1, 3] was 7.95 ng/mL, the “MIP-2 (Macrophage Inflammatory Protein-2)” value [1, 3] was 0.08 pg/mL and the “MPO (Myeloperoxidase)” value [1, 3] was 20.80 ng/mL. For the same compound, the “NGAL (Lipocalin-2)” value [1, 3] was 0.17 ng/mL, the Osteopontin [1, 3] was 396.00 ng/mL and the “SAP (Serum Amyloid P)” value [1, 3] was 133.00 µg/mL. The “SCF (Stem Cell Factor)” value [1, 3] was 14.85 pg/mL, the “SGOT” value [1, 3] was 0.21 µg/mL and the “TIMP-1 (Tissue Inhibitor of Metalloproteinase Type-1)” value [1, 3] was 0.16 ng/mL. For the same compound, the “TPO (Thrombopoietin)” value [1, 3] was 147.00 ng/mL, the “Tissue Factor” value [1, 3] was 0.10 ng/mL and the “VCAM-1 (Vascular Cell Adhesion Molecule-1)” value [1, 3] was 361.00 ng/mL. The “VEGF” value [1, 3] was 81.00 pg/mL, the “Apo A1 (Apolipoprotein A1)” value [1, 4] was 6.20 µg/mL and the “Beta-2 Microglobulin” value [1, 4] was 38.00 µg/mL. The “CRP (C Reactive Protein)” value [1, 4] was 1030.00 µg/mL, the Clusterin [1, 4] was 108.00 µg/mL and the Cystatin-C [1, 4] was 696.00 ng/mL. For the same compound, the Eotaxin [1, 4] was 1072.00 pg/mL, the “FGF-9 (Fibroblast Growth Factor-9)” value [1, 4] was 1.70 ng/mL and the “Factor VII” value [1, 4] was 0.30 ng/mL. For the same compound, the “GCP-2 (Granulocyte Chemotactic Protein-2)” value [1, 4] was 0.29 ng/mL, the GST-Mu [1, 4] was 1190.00 ng/mL and the “Growth Hormone” value [1, 4] was 3.10 ng/mL. For the same compound, the “IL-1beta (Interleukin-1beta)” value [1, 4] was 0.56 ng/mL, the “IL-2 (Interleukin-2)” value [1, 4] was 22.00 pg/mL and the “IL-5 (Interleukin-5)” value [1, 4] was 0.24 ng/mL. The “IL-7 (Interleukin-7)” value [1, 4] was 0.06 ng/mL, the “IL-10 (Interleukin-10)” value [1, 4] was 362.00 pg/mL and the “IL-18 (Interleukin-18)” value [1, 4] was 0.43 ng/mL. The “IP-10 (Inducible Protein-10)” value [1, 4] was 41.00 pg/mL, the “IgA (Immunoglobulin A)” value [1, 4] was 4.30 µg/mL and the Insulin [1, 4] was 14.50 ulU/mL. For the same compound, the “LIF (Leukemia Inhibitory Factor)” value [1, 4] was 67.00 pg/mL, the Leptin [1, 4] was 1.35 ng/mL and the Lymphotactin [1, 4] was 63.00 pg/mL. For the same compound, the “M-CSF” value [1, 4] was 1400.00 ng/mL, the “MCP-1 (Monocyte Chemoattractant Protein-1)” value [1, 4] was 1020.00 pg/mL and the “MCP-3 (Monocyte Chemoattractant Protein-3)” value [1, 4] was 659.00 pg/mL. For the same compound, the “MCP-5 (Monocyte Chemoattractant Protein-5)” value [1, 4] was 0.72 pg/mL, the “MDC (Macrophage-Derived Chemokine)” value [1, 4] was 0.12 pg/mL and the “MIP-1alpha” value [1, 4] was 127.00 ng/mL. For the same compound, the “MIP-1beta (Macrophage Inflammatory Protein-1beta)” value [1, 4] was 0.01 pg/mL, the “MIP-1gamma” value [1, 4] was 19.00 ng/mL and the “MIP-2 (Macrophage Inflammatory Protein-2)” value [1, 4] was 0.22 pg/mL. The “MIP-3beta (Macrophage Inflammatory Protein-3beta)” value [1, 4] was 29.70 ng/mL, the “MPO (Myeloperoxidase)” value [1, 4] was 533.00 ng/mL and the Myoglobin [1, 4] was 520.00 ng/mL. The “NGAL (Lipocalin-2)” value [1, 4] was 0.15 ng/mL, the “OSM (Oncostatin M)” value [1, 4] was 19.10 ng/mL and the Osteopontin [1, 4] was 255.00 ng/mL. The “RANTES (Regulation Upon Activation, Normal T-Cell Expressed and Secreted)” value [1, 4] was 10.60 pg/mL, the “SAP (Serum Amyloid P)” value [1, 4] was 403.00 µg/mL and the “SCF (Stem Cell Factor)” value [1, 4] was 11.30 pg/mL. The “SGOT” value [1, 4] was 8.53 µg/mL, the “TIMP-1 (Tissue Inhibitor of Metalloproteinase Type-1)” value [1, 4] was 0.24 ng/mL and the “TNF-alpha (Tumor Necrosis Factor-alpha)” value [1, 4] was 4.45 ng/mL. The “TPO (Thrombopoietin)” value [1, 4] was 119.00 ng/mL, the “Tissue Factor” value [1, 4] was 0.06 ng/mL and the “VCAM-1 (Vascular Cell Adhesion Molecule-1)” value [1, 4] was 353.00 ng/mL. The “VEGF” value [1, 4] was 78.00 pg/mL, the “reversal of stress-induced alterations in serum markers” value ([1]; listed as gaboxadol) was “significantly reversed the stress-induced alterations in serum markers; also recorded: dose dependently is able to reverse or partially reverse changes” and the “pain response in phase 2 of the formalin pain model” value [2] was “inhibit the pain response in phase 2”.
